Results as given in paper PMC1253704, “Nitromusk and Polycyclic Musk Compounds as Long-Term Inhibitors of Cellular Xenobiotic Defense Systems Mediated by Multidrug Transporters” (Environmental Health Perspectives, 2004).
Like-named read-outs stand apart in the source and are kept apart here. Marks after values point to notes of the source that are not given here.

Legend:
[1] = cited from earlier work
[2] = tested on: efflux transporters in mussel gills (MXR transporters); test: Long-term inhibition: transporter activity assay after 2 hr exposure and 0, 24, 48 hr washing in FSW; type: cell-based, Mytilus californianus; conditions: 1 μM test compound 2 hr
Protocol: (§1) Gill tissue disks were incubated in test solutions with gentle rocking for 90 min at 15°C in the dark (n = 2–5 tissue disks per dish). After exposure, the tissue disks were briefly washed twice in FSW to remove external rhodamine B, frozen on dry ice or in liquid nitrogen, and stored at −20°C in the dark. […] The sonicates were then centrifuged at 13,000g for 5 min, and the supernatant was transferred to black 96-well microplates (Packard Instrument Co., Meriden, CT). The amount of dye in the supernatant was determined with a fluorescence microplate reader (Packard FluoroCount; […]). Rhodamine B extracts were kept dark and on ice at all times. At each reading, background fluorescence was determined with pure n-butanol and subtracted from each value.
(§2) To examine the duration of inhibitory effects after exposure to test compounds, six to nine gill tissue disks were incubated with 1 μM of test compounds for 2 hr. Transporter activity was then assayed in one-third of the disks immediately after exposure and in the others after 24 hr and 48 hr of washing in fresh FSW (50 mL). FSW was changed after 24 hr. During exposure and washing, dishes were gently rocked at 15°C in the dark. The transporter activity assay was performed with 1 μM rhodamine B as described above.
(§3) Transport activities in treated gill disks were normalized relative to nontreated controls that were run for each individual. The ratios, which indicate relative increases in fluorescence, were used as a measure of inhibition by each compound at the specified concentrations. […] IC10 and IC50 values were determined by probit analysis using a macro program for Microsoft Excel written by J. Greve (Fraunhofer-Institut für Umweltchemie und Ökotoxikologie, Schmallenberg, Germany).

[3] = molecular target: T1, efflux transporters in mussel gills (MXR transporters) (Mytilus californianus, UniProt B2WTH9); test: Competitive substrate/transporter inhibition assay: rhodamine B accumulation in mussel gill tissue disks; type: cell-based; conditions: concentration causing 10% of maximal inhibition; mean ± SD; probit regression; 1 μM rhodamine B, 90 min, 15°C
T1 sequence (B2WTH9 1-1311): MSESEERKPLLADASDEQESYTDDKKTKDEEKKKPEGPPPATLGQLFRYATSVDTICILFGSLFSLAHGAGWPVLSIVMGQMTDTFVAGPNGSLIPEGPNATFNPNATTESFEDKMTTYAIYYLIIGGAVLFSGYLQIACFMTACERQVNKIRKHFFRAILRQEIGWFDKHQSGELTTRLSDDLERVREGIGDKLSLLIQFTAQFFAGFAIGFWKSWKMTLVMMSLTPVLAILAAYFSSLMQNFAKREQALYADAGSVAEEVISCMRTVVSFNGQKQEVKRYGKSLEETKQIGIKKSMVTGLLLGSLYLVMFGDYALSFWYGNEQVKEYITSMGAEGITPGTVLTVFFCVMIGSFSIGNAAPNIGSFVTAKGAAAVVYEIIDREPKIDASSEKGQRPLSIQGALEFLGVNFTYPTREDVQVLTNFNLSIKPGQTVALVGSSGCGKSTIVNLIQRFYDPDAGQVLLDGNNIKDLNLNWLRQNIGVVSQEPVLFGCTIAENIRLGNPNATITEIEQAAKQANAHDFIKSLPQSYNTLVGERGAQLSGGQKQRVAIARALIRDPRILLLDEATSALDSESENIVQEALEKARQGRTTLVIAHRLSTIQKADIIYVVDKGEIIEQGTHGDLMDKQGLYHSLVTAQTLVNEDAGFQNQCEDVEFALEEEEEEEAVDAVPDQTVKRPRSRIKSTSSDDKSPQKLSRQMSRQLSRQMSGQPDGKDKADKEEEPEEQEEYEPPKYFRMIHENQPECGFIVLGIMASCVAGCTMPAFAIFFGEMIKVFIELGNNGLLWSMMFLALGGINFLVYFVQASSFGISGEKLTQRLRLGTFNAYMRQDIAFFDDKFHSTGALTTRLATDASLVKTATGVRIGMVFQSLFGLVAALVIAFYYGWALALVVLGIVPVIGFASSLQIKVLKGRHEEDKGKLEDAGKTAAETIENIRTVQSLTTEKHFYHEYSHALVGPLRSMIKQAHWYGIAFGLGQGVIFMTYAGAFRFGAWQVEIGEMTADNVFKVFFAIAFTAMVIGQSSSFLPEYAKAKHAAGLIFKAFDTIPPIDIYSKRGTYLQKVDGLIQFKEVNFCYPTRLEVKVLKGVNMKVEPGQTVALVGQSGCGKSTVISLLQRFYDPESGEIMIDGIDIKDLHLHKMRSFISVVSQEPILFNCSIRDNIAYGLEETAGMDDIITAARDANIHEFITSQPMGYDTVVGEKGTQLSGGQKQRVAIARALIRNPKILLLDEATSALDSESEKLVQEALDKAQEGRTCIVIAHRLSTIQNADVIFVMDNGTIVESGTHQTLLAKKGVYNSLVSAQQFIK
Protocol: The fluorescent dye rhodamine B was used as an indicator of efflux transporter activity. […] Test solutions were prepared in FSW with 1 μM rhodamine B. Stocks of the test compounds dissolved in ethanol were added to FSW to the desired concentrations, and all solutions were adjusted to 1% ethanol along with an ethanol control. […] Incubations were performed in glass petri dishes (diameter, 5 cm) in a volume of 10 mL.
as §1, §3

[4] = molecular target: T1, efflux transporters in mussel gills (MXR transporters); test: Long-term inhibition: transporter activity assay after 2 hr exposure and 0, 24, 48 hr washing in FSW; type: cell-based; conditions: 1 μM test compound 2 hr
Protocol: as §1, §2, §3

[5] = parameters: method as in Käfferlein et al. 1998; conditions: ref Käfferlein et al. 1998, cited from earlier work
[6] = after 24 hr of washing, paired t-test p < 0.05

For CC(=O)c1cc2c(cc1C)C(C)(C)C(C)C2C(C)C (centres unmarked) [ATII, 5-Acetyl-1,1,2,6-tetramethyl-3-isopropylindane], the “Log Kow” value ([1]; ref Balk et al. (2001)) is listed as 6.3^a, the “continuing inhibition of transporter activity, treatment versus control (in words)” value [2, 6] is listed as “significant” and the “continuing inhibition of transporter activity, treatment versus control (in words)” value ([2]; after 48 hr of washing) is listed as “complete recovery”. It also gave an IC10 [3] of 320 ± 40 nM.

In the case of CCN(CC)c1ccc2c(-c3ccccc3C(=O)O)c3ccc(=[N+](CC)CC)cc-3oc2c1 [Rhodamine B, reference compound], the “Log Kow” value ([1]; ref Liu (2004)) is listed as 1.5^c.

For CC(=O)c1cc(C(C)(C)C)cc2c1CCC2(C)C [ADBI, 4-Acetyl-1,1-dimethyl-6-tert-butylindane], the “Log Kow” value ([1]; ref Balk et al. (2001)) is listed as 5.9^a, the “continuing inhibition of transporter activity, treatment versus control (in words)” value [2, 6] is listed as “clear trends of increased rhodamine levels” and the “continuing inhibition of transporter activity, treatment versus control (in words)” value ([2]; after 48 hr of washing) is listed as “trend of reduced activity”. It also gave an IC10 [3] of 390 ± 340 nM.

In the case of Cc1c([N+](=O)[O-])c(C)c([N+](=O)[O-])c(C(C)(C)C)c1[N+](=O)[O-] [MX, 1-tert-Butyl-3,5-dimethyl-2,4,6-trinitrobenzene], the “Log Kow” value ([1]; ref Balk et al. (2001)) is given as 4.9^a, the “continuing inhibition of transporter activity, treatment versus control (in words)” value [4, 6] is given as “significant” and the “continuing inhibition of transporter activity, treatment versus control (in words)” value ([4]; after 48 hr of washing) is given as “trend of reduced activity”. For the same compound, the “Concentrations found in blood plasma” value ([5]; human blood plasma) was “nanomolar range”, the “Concentrations found in body fat and breast milk” value ([5]; human body fat and breast milk) was 0.2 to 0.3 µmol/kg and the IC10 [3] was 140 ± 120 nM.

In the case of CC(=O)c1c(C)c([N+](=O)[O-])c(C(C)(C)C)c([N+](=O)[O-])c1C [MK, 1-tert-Butyl-3,5-dimethyl-2,6-dinitro-4-acetylbenzene], the “Log Kow” value ([1]; ref Balk et al. (2001)) is given as 4.3^a, the “continuing inhibition of transporter activity, treatment versus control (in words)” value [2, 6] is given as “clear trends of increased rhodamine levels” and the “continuing inhibition of transporter activity, treatment versus control (in words)” value ([2]; after 48 hr of washing) is given as “trend of reduced activity”. For the same compound, the IC10 [3] was 90 ± 120 nM.

In the case of CC1COCc2cc3c(cc21)C(C)(C)C(C)C3(C)C (centres unmarked) [HHCB, 1,3,4,6,7,8-Hexahydro-4,6,6,7,8,8-hexamethyl-cyclopenta-γ-[2]-benzopyran], the “Log Kow” value ([1]; ref Balk et al. (2001)) is listed as 5.9^a, the “continuing inhibition of transporter activity, treatment versus control (in words)” value [2, 6] is listed as “significant” and the “continuing inhibition of transporter activity, treatment versus control (in words)” value ([2]; after 48 hr of washing) is listed as “trend of reduced activity”. The IC10 [3] was 370 ± 160 nM.
